Counter-ions that a name gives are not always drawn.
Legend:
human RORγt LBD = human RORγt LBD (Homo sapiens (Human), UniProt P51449); test: RORγt reporter assay (GAL4-RORγt LBD luciferase in HEK293T cells); assay type: cell-based; conditions: for IC50 / RORγt reporter Assay, % inhibition @ 6 μM: HEK293T cells; for IC50: 24 hours compound treatment; for inhibition at 6 µM: HEK-293T, read-out: RORγt reporter Assay, % inhibition @ 6 μM, HEK293T cells, 6 μM
Text: A reporter assay was used to test functional activity of RORγt modulatory compounds on transcriptional activation driven by the RORγt LBD. Cells used in the assay were co-transfected with two constructs. The first construct, pBIND-RORγt LBD, contained the wild type human RORγt LBD fused to the DNA binding domain of the GAL4 protein. The second construct, pGL4.31 (Promega Cat no. C935A), contained multiple GAL4 responsive DNA elements upstream of firefly luciferase. […] The mutant construct was called pBIND-RORγt-AF2.
The pBIND vector contains the GAL4 DNA Binding Domain (GAL4 DBD) and the renilla luciferase gene under control of the SV40 promoter. Renilla luciferase expression serves as a control for transfection efficiency and cell viability.
The reporter assay was performed by transiently transfecting HEK293T cells with 5 ng of pBIND-RORγt LBD or pBIND-RORγt LBD-AF2 and 5 μg pGL4.31 (Promega Cat no. C935A) using Fugene 6 ([…] Cat no. E2691) at a 1:6 ratio of DNA: Fugene 6 in a T-75 flask in which cells were at least 80% confluent. Twenty four hours after bulk transfection, cells were plated into 96-well plates at 50,000 cells/well in phenol-red free DMEM containing 5% Lipid Reduced FCS and Pen/Strep. Six hours after plating, cells were treated with compounds for 24 hours. Media was removed and cells were lysed with 50 μL 1× Glo Lysis Buffer (Promega). Dual Glo Luciferase Reagent (50 μL/well) was then added and firefly luciferase luminescence was read on an Envision after a ten minute incubation. Finally, Stop and Glo reagent (50 μL/well) was added and renilla luciferase luminescence was read on an Envision after a ten minute incubation. To calculate the effect of compounds on RORγt activity, the ratio of firefly to renilla luciferase was determined and plotted against compound concentration. Agonist compounds increase RORγt-driven luciferase expression, and antagonist or inverse agonist compounds decrease luciferase expression.

[1] = target: human RORγt ligand binding domain (RORγt LBD) (Homo sapiens (Human), UniProt P51449); test: RORγt ThermoFluor assay (thermal shift binding affinity); conditions: estimated from thermal shift
Method: This approach is applicable to a wide variety of systems, and rigorous in theoretical interpretation through quantitation of equilibrium binding constants (KD).
The shift in the melting point described as a ΔTm is proportional to the concentration and affinity of the ligand.
RORγt ThermoFluor® Assay Construct
Protein and compound solutions are dispensed into black 384-well polypropylene PCR microplates (Abgene) and overlayed with silicone oil (1 μL, Fluka, type DC 200) to prevent evaporation.
Bar-coded assay plates are robotically loaded onto a thermostatically controlled PCR-type thermal block and then heated at a typical ramp-rate of 1° C./min for all experiments. Fluorescence was measured by continuous illumination with UV light (Hamamatsu LC6) supplied via fiber optic and filtered through a band-pass filter (380-400 nm; >6 OD cutoff). Fluorescence emission of the entire 384-well plate was detected by measuring light intensity using a CCD camera (Sensys, Roper Scientific) filtered to detect 500±25 nm, resulting in simultaneous and independent readings of all 384 wells. Images were collected at each temperature, and the sum of the pixel intensity in a given area of the assay plate was recorded versus temperature. Reference wells contained RORγt without compounds, and the assay conditions were as follows: • 0.065 mg/mL RORγt • 60 μM 1,8-ANS • 100 mM Hepes, pH 7.0 • 10 mM NaCl • 2.5 mM GSH • 0.002% Tween-20
Project compounds were arranged in a pre-dosed mother plate (Greiner Bio-one) wherein compounds are serially diluted in 100% DMSO by 1:2 from a high concentration of 10 mM over 12 columns within a series (column 12 is a reference well containing DMSO, no compound). The compounds were robotically dispensed directly into assay plates (1×=46 nL) using a Hummingbird capillary liquid handling instrument (Digilab). Following compound dispense, protein and dye in buffer was added to achieve the final assay volume of 3 μL, followed by 1 μL of silicone oil.

human RORγt ligand binding domain (RORγt LBD), sequence (P51449 other isoform, or with tags, fused parts or gaps): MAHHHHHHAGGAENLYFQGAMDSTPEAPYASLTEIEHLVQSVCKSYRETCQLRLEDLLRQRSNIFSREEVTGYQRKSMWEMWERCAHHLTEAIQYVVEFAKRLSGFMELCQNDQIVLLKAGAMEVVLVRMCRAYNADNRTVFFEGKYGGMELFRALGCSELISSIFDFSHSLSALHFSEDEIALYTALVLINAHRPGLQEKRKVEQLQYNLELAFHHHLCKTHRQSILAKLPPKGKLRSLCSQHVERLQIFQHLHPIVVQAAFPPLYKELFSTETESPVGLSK
human RORγt LBD, sequence (P51449 258-518): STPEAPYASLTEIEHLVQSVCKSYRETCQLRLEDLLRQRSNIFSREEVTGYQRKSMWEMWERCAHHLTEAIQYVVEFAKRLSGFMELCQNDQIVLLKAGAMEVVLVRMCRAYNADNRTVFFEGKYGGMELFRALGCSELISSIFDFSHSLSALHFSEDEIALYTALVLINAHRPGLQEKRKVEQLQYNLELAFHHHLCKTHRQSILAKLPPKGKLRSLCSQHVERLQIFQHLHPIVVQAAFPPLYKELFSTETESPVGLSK

## COc1nc2ccc(C(O)(c3ccccc3)C3CCN(C(C)=O)CC3)cc2c(Cl)c1Cc1ccc(-n2cccn2)cc1 (racemic) [Example 83A, 1-(4-((3-(4-(1H-Pyrazol-1-yl)benzyl)-4-chloro-2-methoxyquinolin-6-yl)(hydroxy)(phenyl)methyl)piperidin-1-yl)ethanone]
Human RORγt LBD
  IC50: 0.039 µM
  inhibition at 6 µM: 104%
[1]
  Kd: 0.012 µM

## CCN(CC)c1nc2ccc(C(O)(c3ccc(Cl)cc3)c3cncn3C)cc2c(Cl)c1Cc1ccc(-n2cccn2)cc1 (single isomer, unassigned) [Example 75B, (3-(4-(1H-Pyrazol-1-yl)benzyl)-4-chloro-2-(diethylamino)quinolin-6-yl)(4-chlorophenyl)(1-methyl-1H-imidazol-5-yl)methanol]
Human RORγt LBD
  RORγt reporter Assay, % inhibition @ 6 μM: 39%
  IC50: > 6 µM
[1]
  Kd: 8.6 µM

## OC(c1ccc(F)cc1)(c1cccnc1)c1ccc2nc(Cl)c(Cc3ccc(-n4cccn4)cc3)c(Cl)c2c1 (stereo not drawn) [Example 46, (3-(4-(1H-Pyrazol-1-yl)benzyl)-2,4-dichloroquinolin-6-yl)(4-fluorophenyl)(pyridin-3-yl)methanol]
Human RORγt LBD
  IC50: 0.052 µM
  inhibition at 6 µM: 89%
[1]
  Kd: 0.022 µM

## Cn1cncc1C(O)(c1ccc(C(F)(F)F)nc1)c1ccc2nc(N3CCC3)c(Cc3ccc(C(F)(F)F)cc3)c(Cl)c2c1 (racemic) [Example 92A, (2-(Azetidin-1-yl)-4-chloro-3-(4-(trifluoromethyl)benzyl)quinolin-6-yl)(1-methyl-1H-imidazol-5-yl)(6-(trifluoromethyl)pyridin-3-yl)methanol]
Human RORγt LBD
  IC50: 0.029 µM
  inhibition at 6 µM: 100%
[1]
  Kd: 0.0025 µM

## COc1ccc(Cc2c(Cl)nc3ccc(C(O)(c4cccnc4)c4cccc(Cl)c4)cc3c2Cl)cc1 (stereo not drawn) [Example 6, (3-Chlorophenyl)-(2,4-dichloro-3-(4-methoxybenzyl)quinolin-6-yl)-(pyridin-3-yl)methanol.TFA]
Human RORγt LBD
  IC50: ~2 µM
  inhibition at 6 µM: 96%
[1]
  Kd: 0.015 µM

## Cn1cncc1C(O)(c1ccc(Cl)cc1)c1ccc2nc(O)c(Cc3ccc(-n4cccn4)cc3)c(Cl)c2c1 (single isomer, unassigned) [Example 55B, 3-(4-(1H-pyrazol-1-yl)benzyl)-4-chloro-6-((4-chlorophenyl)(hydroxy)(1-methyl-1H-imidazol-5-yl)methyl)quinolin-2-ol]
Human RORγt LBD
  IC50: 2.4 µM
  inhibition at 6 µM: 85%
[1]
  Kd: > 81 µM

## COc1nc2ccc(C(O)(c3ccc(F)cc3)c3cncn3C)cc2c(Cl)c1Cc1ccc(S(C)(=O)=O)cc1 (single isomer, unassigned) [Example 54B, (4-chloro-2-methoxy-3-(4-(methylsulfonyl)benzyl)quinolin-6-yl)(4-fluorophenyl)(1-methyl-1H-imidazol-5-yl)methanol]
Human RORγt LBD
  IC50: 2 µM
  inhibition at 6 µM: 86%
[1]
  Kd: 0.84 µM

## Cc1nc2ccc(C(O)(c3ccc(Cl)cc3)c3cncn3C)cc2c(C)c1Cc1ccccc1 (stereo not drawn) [Example 50, (3-Benzyl-2,4-dimethylquinolin-6-yl)(4-chlorophenyl)(1-methyl-1H-imidazol-5-yl)methanol.TFA]
Human RORγt LBD
  IC50: > 6 µM
  inhibition at 6 µM: 71%
[1]
  Kd: 0.32 µM

## COc1ccc(Cc2c(OC)nc3ccc(C(O)(c4ccc(Cl)cc4)c4cncn4C)cc3c2Cl)cc1 (stereo not drawn) [Example 13, (4-Chloro-2-methoxy-3-(4-methoxybenzyl)quinolin-6-yl)(4-chlorophenyl)(1-methyl-1H-imidazol-5-yl)methanol.TFA]
Human RORγt LBD
  IC50: ~1 µM
  inhibition at 6 µM: 70%
[1]
  Kd: 0.031 µM

## COc1nc2ccc(C(O)(c3ccc(C#N)cc3)c3cncn3C)cc2c(C#N)c1Cc1ccc(C(F)(F)F)cc1 (stereo not drawn) [Example 96A, 6-((4-cyanophenyl)(hydroxy)(1-methyl-1H-imidazol-5-yl)methyl)-2-methoxy-3-(4-(trifluoromethyl)benzyl)quinoline-4-carbonitrile]
Human RORγt LBD
  IC50: 0.0078 µM
  inhibition at 6 µM: 99%
[1]
  Kd: 0.0019 µM

## CCOc1nc2ccc(C(O)(c3ccc(OC)nc3)c3cncs3)cc2c(Cl)c1Cc1ccccc1 (stereo not drawn) [Example 19, (3-Benzyl-4-chloro-2-ethoxyquinolin-6-yl)(6-methoxypyridin-3-yl)(thiazol-5-yl)methanol]
Human RORγt LBD
  IC50: 6.6 µM
  inhibition at 6 µM: 57%
[1]
  Kd: 0.0027 µM

## COc1nc2c(C)cc(C(O)(c3ccc(C(F)(F)F)nc3)c3cncn3C)cc2c(Cl)c1Cc1ccc(-n2cccn2)cc1 (stereo not drawn) [Example 29A, (3-(4-(1H-Pyrazol-1-yl)benzyl)-4-chloro-2-methoxy-8-methylquinolin-6-yl)(1-methyl-1H-imidazol-5-yl)(6-(trifluoromethyl)pyridin-3-yl)methanol]
Human RORγt LBD
  IC50: 0.091 µM
  inhibition at 6 µM: 96%
[1]
  Kd: 0.0048 µM

## COc1nc2ccc(C(O)(c3cccnc3)c3cccc(Cl)c3)cc2c(Cl)c1Cc1ccc(F)cc1 (stereo not drawn) [Example 7, (4-Chloro-3-(4-fluorobenzyl)-2-methoxyquinolin-6-yl)(3-chlorophenyl)(pyridin-3-yl)methanol]
Human RORγt LBD
  IC50: > 6 µM
  inhibition at 6 µM: 32%
[1]
  Kd: 0.04 µM

## Cn1cc(C(O)(c2ccc(Cl)cc2)c2ccc3nc(Cl)c(Cc4ccccc4)c(Cl)c3c2)cn1 (stereo not drawn) [Example 49, (3-Benzyl-2,4-dichloroquinolin-6-yl)(4-chlorophenyl)(1-methyl-1H-pyrazol-4-yl)methanol.TFA]
Human RORγt LBD
  IC50: 1.8 µM
  inhibition at 6 µM: 77%
[1]
  Kd: 0.33 µM

## COc1nc2ccc(C(O)(c3ccc(N(C)C)cc3)c3cncn3C)cc2c(Cl)c1Cc1ccc(-n2cccn2)cc1 (stereo not drawn) [Example 26, (3-(4-(1H-Pyrazol-1-yl)benzyl)-4-chloro-2-methoxyquinolin-6-yl)(4-(dimethylamino)phenyl)(1-methyl-1H-imidazol-5-yl)methanol.TFA]
Human RORγt LBD
  IC50: 0.48 µM
  inhibition at 6 µM: 85%
[1]
  Kd: 0.22 µM

## Cn1cncc1C(O)(c1ccc(Cl)cc1)c1ccc2nc(O)c(Cc3ccc(-n4cccn4)cc3)c(Cl)c2c1 (single isomer, unassigned) [Example 55C, 3-(4-(1H-pyrazol-1-yl)benzyl)-4-chloro-6-((4-chlorophenyl)(hydroxy)(1-methyl-1H-imidazol-5-yl)methyl)quinolin-2-ol]
Human RORγt LBD
  RORγt reporter Assay, % inhibition @ 6 μM: 92%
  IC50: 3.2 µM
[1]
  Kd: 3.5 µM

## COc1nc2c(C)cc(C(O)(c3cncn3C)c3cncn3C)cc2c(Cl)c1Cc1ccc(S(C)(=O)=O)cc1 [Example 57, (4-Chloro-2-methoxy-8-methyl-3-(4-(methylsulfonyl)benzyl)quinolin-6-yl)bis(1-methyl-1H-imidazol-5-yl)methanol.Succinate]
Human RORγt LBD
  IC50: 0.057 µM
  inhibition at 6 µM: 100%
[1]
  Kd: 0.0084 µM

## COc1nc2ccc(C(O)(c3ccc(Cl)cc3)c3cncn3C)cc2c(C#N)c1Cc1ccc(-n2cccn2)cc1 (stereo not drawn) [Example 69, 3-(4-(1H-Pyrazol-1-yl)benzyl)-6-((4-chlorophenyl)(hydroxy)(1-methyl-1H-imidazol-5-yl)methyl)-2-methoxyquinoline-4-carbonitrile]
Human RORγt LBD
  IC50: 0.17 µM
  inhibition at 6 µM: 103%
[1]
  Kd: 0.05 µM

## COc1nc2ccc(C(O)(c3ccc(Cl)cc3)c3cncn3C)cc2c(Cl)c1Cc1cc2ccccc2s1 (single isomer, unassigned) [Example 36B, (3-(benzo[b]thiophen-2-ylmethyl)-4-chloro-2-methoxyquinolin-6-yl)(4-chlorophenyl)(1-methyl-1H-imidazol-5-yl)methanol]
Human RORγt LBD
  RORγt reporter Assay, % inhibition @ 6 μM: 62%
  IC50: 0.74 µM
[1]
  Kd: 0.4 µM
